# pEC50: −log10 of the molar value. Calls of active or inactive are those of the source. The calls are words filed in the database; no cut-off is given here.
# Tests used:
# [1] = Hepatotoxicity in DIO C57BL/6 mouse assessed as aspartate aminotransferase level in serum at 25 nmol/kg, sc administered every 2 days for 3 weeks; assay type: toxicity, organism-based; settings: in vivo, 504 h, time 21 day
# [2] = test system: Mus musculus; assay: Anti-diabesity activity against db/db mouse assessed as reduction in fasting blood glucose level at 25 nmol/kg, sc administered every 2 days for 12 weeks; assay type: functional, organism-based
# [3] = test system: Mus musculus; assay: Anti-diabesity activity against db/db mouse assessed as improvement in glucose tolerance at 25 nmol/kg, sc administered every 2 days for 3 weeks by OGTT; assay type: functional, organism-based; settings: time 21.0 day
# [4] = Pancreatic insult activity in DIO C57BL/6 mouse assessed as increase in lipase level in plasma at 100 nmol/kg, sc administered once daily for 7 days; assay type: toxicity, organism-based; settings: in vivo, 168 h, time 7 day
# [5] = test system: Mus musculus; assay: Anti-diabesity activity against db/db mouse assessed as improvement in glucose tolerance level at 25 nmol/kg, sc administered every 2 days for 6 weeks followed by saline treatment for 6 weeks and measured during first 6 weeks by OGTT; assay type: functional, organism-based
# [6] = Cmax in Sprague-Dawley rat at 25 nmol/kg, sc by LC-MS/MS analysis; assay type: ADME, organism-based; set-up: dose 25 nmol/kg, route sc; settings: in vivo
# [7] = Hepatotoxicity in db/db mouse assessed as aspartate aminotransferase level in plasma at 100 nmol/kg, sc administered once daily for 7 days; assay type: toxicity, organism-based; settings: in vivo, 168 h, time 7 day
# [8] = Pancreatic insult activity in db/db mouse assessed as increase in amylase level in plasma at 100 nmol/kg, sc administered once daily for 7 days; assay type: toxicity, organism-based; settings: in vivo, 168 h, time 7 day
# [9] = test system: Mus musculus; assay: Hypoglycemic activity in ICR mouse assessed as improvement in glucose tolerance at 25 nmol/kg, ip administered 30 min before oral glucose administration and measured upto 120 mins by OGTT; assay type: functional, organism-based
# [10] = test system: Mus musculus; assay: Anti-diabesity activity in DIO C57BL/6 mouse assessed as reduction in body weight at 100 nmol/kg, sc administered once daily for 7 days; assay type: functional; settings: C57BL/6, 168 h, time 7 day
# [11] = test system: Mus musculus; assay: Anti-diabesity activity in DIO C57BL/6 mouse assessed as reduction in body weight at 10 nmol/kg, sc administered every 2 days for 10 days; assay type: functional; settings: C57BL/6, 240 h, time 10 day
# [12] = Pancreatic insult activity in db/db mouse assessed as increase in amylase level in serum at 25 nmol/kg, sc administered every 2 days for 12 weeks; assay type: toxicity, organism-based; settings: in vivo, 2016 h
# [13] = biological target: T1, Cholecystokinin receptor type A (Homo sapiens, UniProt P32238); assay: Agonist activity at human CCK1R expressed in HEK293 cells assessed as ERK1/2 phosphorylation incubated for 5 mins by AlphaScreen assay; assay type: functional, cell-based; settings: hek293
# T1 sequence (P32238 whole entry): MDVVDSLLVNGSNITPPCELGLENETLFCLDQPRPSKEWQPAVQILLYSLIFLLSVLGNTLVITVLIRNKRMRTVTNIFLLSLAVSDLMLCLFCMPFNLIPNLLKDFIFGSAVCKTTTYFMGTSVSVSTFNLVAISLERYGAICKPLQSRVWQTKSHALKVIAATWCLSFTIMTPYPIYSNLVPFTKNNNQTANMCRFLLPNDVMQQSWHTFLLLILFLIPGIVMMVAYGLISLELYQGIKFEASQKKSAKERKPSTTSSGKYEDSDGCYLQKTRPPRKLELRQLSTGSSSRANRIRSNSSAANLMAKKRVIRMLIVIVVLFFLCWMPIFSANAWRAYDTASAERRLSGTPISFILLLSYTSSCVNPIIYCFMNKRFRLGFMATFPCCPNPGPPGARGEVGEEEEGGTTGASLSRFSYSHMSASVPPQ
# [14] = biological target: T2, Glucagon-like peptide 1 receptor (Homo sapiens, UniProt P43220); assay: Agonist activity at human GLP-1R expressed in CHO cells assessed as cAMP release incubated for 20 min by HTRF analysis; assay type: functional, cell-based
# T2 sequence (P43220 whole entry): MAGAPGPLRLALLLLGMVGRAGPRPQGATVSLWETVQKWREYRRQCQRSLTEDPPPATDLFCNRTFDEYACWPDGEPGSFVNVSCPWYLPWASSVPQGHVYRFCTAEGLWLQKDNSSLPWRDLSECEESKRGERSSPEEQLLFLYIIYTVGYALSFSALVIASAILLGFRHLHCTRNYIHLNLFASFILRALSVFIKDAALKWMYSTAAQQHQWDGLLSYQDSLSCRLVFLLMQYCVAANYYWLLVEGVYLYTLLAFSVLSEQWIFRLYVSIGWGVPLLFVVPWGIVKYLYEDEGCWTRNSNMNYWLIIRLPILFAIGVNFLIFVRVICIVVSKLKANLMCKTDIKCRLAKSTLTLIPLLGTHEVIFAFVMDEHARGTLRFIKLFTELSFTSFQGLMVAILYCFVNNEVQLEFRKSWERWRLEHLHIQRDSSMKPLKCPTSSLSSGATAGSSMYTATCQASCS
# [15] = biological target: T2, Glucagon-like peptide 1 receptor; assay: Agonist activity at human GLP-1R expressed in HEK293 cells assessed as cAMP release incubated for 20 min by HTRF analysis; assay type: functional, cell-based; settings: hek293
Compound,Activity [1],Activity [2],Activity [3],Activity [4],Activity [5],Cmax [6] [ng/mL],Activity [7],Activity [8],Activity [9],inhibition in vivo at 0.1 µmol/kg [10] [%],inhibition in vivo at 0.01 µmol/kg [11] [%],Activity [12],pEC50 [13],pEC50 [14],pEC50 [15]
CCCC[C@H](NC(=O)[C@H](Cc1ccc(CS(=O)(=O)O)cc1)NC(=O)[C@H](CC(=O)O)NC(=O)COCCOCCNC(=O)COCCOCCNC(=O)[C@H](CCCNC(=N)N)NC(=O)CNC(=O)[C@H](CCCCN)NC(=O)[C@@H](NC(=O)[C@H](CC(C)C)NC(=O)[C@H](Cc1c[nH]c2ccccc12)NC(=O)[C@H](C)NC(=O)[C@@H](NC(=O)[C@H](Cc1ccccc1)NC(=O)[C@H](CCC(=O)O)NC(=O)[C@H](CCCCNC(=O)COCCOCCNC(=O)COCCOCCNC(=O)CC[C@H](NC(=O)CCCCCCCCCCCCCCCCC(=O)O)C(=O)O)NC(=O)[C@H](C)NC(=O)[C@H](C)NC(=O)[C@H](CCC(N)=O)NC(=O)CNC(=O)[C@H](CCC(=O)O)NC(=O)[C@H](CC(C)C)NC(=O)[C@H](Cc1ccc(O)cc1)NC(=O)[C@H](CO)NC(=O)[C@H](CO)NC(=O)[C@@H](NC(=O)[C@H](CC(=O)O)NC(=O)[C@H](CO)NC(=O)[C@@H](NC(=O)[C@H](Cc1ccccc1)NC(=O)[C@@H](NC(=O)CNC(=O)[C@H](CCC(=O)O)NC(=O)[C@H](C)NC(=O)[C@@H](N)Cc1cnc[nH]1)[C@@H](C)O)[C@@H](C)O)C(C)C)[C@@H](C)CC)C(C)C)C(=O)NCC(=O)N[C@@H](Cc1c[nH]c2ccccc12)C(=O)N[C@@H](CCCC)C(=O)N(C)[C@H](CC(=O)O)C(=O)N(C)[C@@H](Cc1ccccc1)C(N)=O,Non-Toxic,Active,Active,Non-Toxic,Active,341,Non-Toxic,Non-Toxic,Active,19.2,14.5,Toxic,8.90,,
CCCC[C@H](NC(=O)[C@H](Cc1ccc(CS(=O)(=O)O)cc1)NC(=O)[C@H](CC(=O)O)NC(=O)COCCOCCNC(=O)COCCOCCNC(=O)[C@H](CCCCN)NC(=O)CNC(=O)[C@H](CCCCN)NC(=O)[C@@H](NC(=O)[C@H](CC(C)C)NC(=O)[C@H](Cc1c[nH]c2ccccc12)NC(=O)[C@H](CCC(=O)O)NC(=O)[C@@H](NC(=O)[C@H](Cc1ccccc1)NC(=O)[C@H](CCC(=O)O)NC(=O)[C@H](CCCCNC(=O)COCCOCCNC(=O)COCCOCCNC(=O)CC[C@H](NC(=O)CCCCCCCCCCCCCCCCC(=O)O)C(=O)O)NC(=O)[C@H](C)NC(=O)[C@H](C)NC(=O)[C@H](CCC(=O)O)NC(=O)[C@H](CCC(=O)O)NC(=O)[C@H](CCC(=O)O)NC(=O)[C@H](CC(C)C)NC(=O)[C@@H](NC(=O)[C@H](CCC(=O)O)NC(=O)[C@@H](NC(=O)[C@@H](NC(=O)[C@H](CC(=O)O)NC(=O)[C@H](CC(N)=O)NC(=O)[C@@H](NC(=O)[C@H](Cc1ccc(O)cc1)NC(=O)[C@@H](NC(=O)CNC(=O)[C@H](CCC(=O)O)NC(=O)C(C)(C)NC(=O)[C@@H](N)Cc1cnc[nH]1)[C@@H](C)O)[C@@H](C)O)C(C)C)[C@@H](C)O)[C@@H](C)O)[C@@H](C)CC)[C@@H](C)CC)C(=O)NCC(=O)N[C@@H](Cc1c[nH]c2ccccc12)C(=O)N[C@@H](CCCC)C(=O)N(C)[C@H](CC(=O)O)C(=O)N(C)[C@@H](Cc1ccccc1)C(N)=O,Non-Toxic,Active,Active,Non-Toxic,Active,461,Non-Toxic,Non-Toxic,,21.4,16.2,Toxic,9.08,10.24,10.13

# Reference: ChEMBL document CHEMBL5143608, “Peptide-based long-acting co-agonists of GLP-1 and cholecystokinin 1 receptors as novel anti-diabesity agents” (Eur J Med Chem, 2022)
